Experimental data taken from patent publication US9315475B2 (MERCK SHARP & DOHME CORP., priority 2011, dated 2016).
Counter-ions that a name gives are not always drawn.

Legend:
wildtype HIV-1 protease = target: T1, wildtype HIV-1 protease (Human immunodeficiency virus type 1 group M subtype B, UniProt P04585); test: Assay for inhibition of microbial expressed HIV protease (Pepcleav); format: biochemical; conditions: wild type HIV-1 protease expressed in E. coli, peptide substrate, pH 5.5; mean of at least two independent experiments; read-out: Pepcleav
T1 construct: the wildtype HIV-1 protease (which was expressed in Escherichia coli); made in house; host or cells: Escherichia coli
Outline: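 E. coli-expressed wild-type HIV-1 protease (20 pM) preincubated 30 min at room temperature with inhibitor in pH 5.5 sodium acetate/NaCl/BSA buffer, then 400 μM Val-Ser-Gln-Asn-(βnaphthyl)Ala-Pro-Ile-Val added for 1 h at 30 °C. Quenched with formic acid; product quantified by LC-MS/MS peak area, indinavir internal standard.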

HIV-1 (H9IIIB strain) = test: Antiviral acute infection assay in cell culture (Spread); format: cell-based; conditions: HIV-1 H9IIIB infection of MT-4 human T-lymphoid cells in 10% FBS, mean of at least two independent experiments
Text: Antiviral Assays in Cell Culture (“Spread”)
Acute Infection Assay (“Spread”) data were generated using HIV-1 (H9IIIB strain) infection of MT-4 human T-lymphoid cells in 10% FBS, and according to the methods disclosed by J. P. Vacca et al, “L-735,524: An orally bioavailable human immunodeficiency virus type 1 protease inhibitor,” Proc. Natl. Acad. Sci. USA, Vol. 91, pp. 4096-4100 (April 1994).

[1] = Human immunodeficiency virus 1, T-lymphoid

Compound	IC50 (wildtype HIV-1 protease)	EC50 (HIV-1 (H9IIIB strain))	EC50 (HIV-1 (H9IIIB strain); [1])
N[C@H](C(=O)Nc1c(Cl)cccc1OC[C@@H]1CN[C@H](COC(=O)NCC(F)(F)F)CO1)C(c1ccc(F)cc1)c1ccc(F)cc1 [Example 261, N-(2-chloro-6-{[(2S,5S)-5-({[(2,2,2-trifluoroethyl)carbamoyl]oxy}methyl)morpholin-2-yl]methoxy}phenyl)-4-fluoro-β-(4-fluorophenyl)-L-phenylalaninamide]	4.3 nM	170 nM	
N[C@H](C(=O)Nc1cccc(F)c1CC[C@@H]1CN[C@H](COC(=O)NCC(F)(F)F)CO1)[C@H](c1ccccc1)c1ccc(OC(F)(F)F)cc1 [Example 236, (βR)-N-(3-fluoro-2-{2-[(2R,5S)-5-({[(2,2,2-trifluoroethyl)carbamoyl]oxy}methyl)morpholin-2-yl]ethyl}phenyl)-β-phenyl-O-(trifluoromethyl)-L-tyrosinamide]	69 nM		580 nM
N[C@H](C(=O)Nc1cccc(F)c1CC[C@@H]1CN[C@H](COC(=O)NCC(F)(F)F)CO1)C(c1ccc(F)cc1)c1ccc(F)cc1 [Example 80, 4-Fluoro-β-(4-fluorophenyl)-N-(3-fluoro-2-{2-[(2R,5S)-5-({[(2,2,2-trifluoroethyl)carbamoyl]oxy}methyl)morpholin-2-yl]ethyl}phenyl)-L-phenylalaninamide dihydrochloride]	9.4 nM		45 nM
N[C@H](C(=O)Nc1cccc(F)c1CC[C@@H]1CN[C@H](COC(=O)NCC(F)(F)F)CO1)[C@H](c1ccccc1)c1cccc(Cl)c1 [Example 244, (βR)-3-chloro-N-(3-fluoro-2-{2-[(2R,5S)-5-({[(2,2,2-trifluoroethyl)carbamoyl]oxy}methyl)morpholin-2-yl]ethyl}phenyl)-β-phenyl-L-phenylalaninamide]	22 nM		120 nM
N[C@H](C(=O)Nc1cccc(F)c1CC[C@@H]1CN[C@H](COC(=O)NCC(F)(F)F)CO1)[C@@H](c1ccc(F)cc1)c1cc(F)cc(F)c1 [Example 251, (βS)-3,5-difluoro-β-(4-fluorophenyl)-N-(3-fluoro-2-{2-[(2R,5S)-5-({[(2,2,2-trifluoroethyl)carbamoyl]oxy}methyl)morpholin-2-yl]ethyl}phenyl)-L-phenylalaninamide]	8.2 nM		32 nM
N[C@H](C(=O)Nc1cccc(F)c1CC[C@@H]1CN[C@H](COC(=O)NCC(F)(F)F)CO1)[C@H](c1ccc(F)cc1)c1ccc(F)c(F)c1 [Example 270, (βR)-β-(3,4-difluorophenyl)-4-fluoro-N-(3-fluoro-2-{2-[(2R,5S)-5-({[(2,2,2-trifluoroethyl)carbamoyl]oxy}methyl)morpholin-2-yl]ethyl}phenyl)-L-phenylalaninamide]	2.1 nM		22 nM
N[C@H](C(=O)Nc1cncc(F)c1CC[C@@H]1CN[C@H](COC(=O)NCC(F)(F)F)CO1)[C@H](c1ccc(F)cc1)c1ccc(Cl)cc1 [Example 267, (βR)-β-(4-chlorophenyl)-4-fluoro-N-(5-fluoro-4-{2-[(2R,5S)-5-({[(2,2,2-trifluoroethyl)carbamoyl]oxy}methyl)morpholin-2-yl]ethyl}pyridin-3-yl)-L-phenylalaninamide]	3.1 nM		51 nM
CC(C)COC(=O)N[C@H](C(=O)Nc1cncc(F)c1CC[C@@H]1CN[C@H](COC(=O)NCC(F)(F)F)CO1)C(c1ccc(F)cc1)c1ccc(F)cc1 [Example 140, 4-Fluoro-β-(4-fluorophenyl)-N-(5-fluoro-4-{2-[(2R,5S)-5-({[(2,2,2-trifluoroethyl)carbamoyl]oxy}methyl)morpholin-2-yl]ethyl}pyridin-3-yl)-Nα-[(2-methylpropoxy)carbonyl]-L-phenylalaninamide]	2.1 nM		21 nM
N[C@H](C(=O)Nc1cncc(F)c1CC[C@@H]1CN[C@H](COC(=O)NC[C@H]2CCC(=O)N2)CO1)C(c1ccc(F)cc1)c1ccc(F)cc1 [Example 254, 4-fluoro-N-(5-fluoro-4-{2-[(2R,5S)-5-{[({[(2R)-5-oxopyrrolidin-2-yl]methyl}carbamoyl)oxy]methyl}morpholin-2-yl]ethyl}pyridin-3-yl)-β-(4-fluorophenyl)-L-phenylalaninamide]	7.6 nM		1100 nM
CCOCCNC(=O)OC[C@@H]1CO[C@H](CCc2c(F)cncc2NC(=O)[C@@H](N)C(c2ccc(F)cc2)c2ccc(F)cc2)CN1 [Example 248, N-(4-{2-[(2R,5S)-5-({[(2-ethoxyethyl)carbamoyl]oxy}methyl)morpholin-2-yl]ethyl}-5-fluoropyridin-3-yl)-4-fluoro-β-(4-fluorophenyl)-L-phenylalaninamide]	9.8 nM		55 nM
CC1(CNC(=O)OC[C@@H]2CO[C@H](CCc3c(F)cncc3NC(=O)[C@@H](N)C(c3ccc(F)cc3)c3ccc(F)cc3)CN2)CCCO1 (stereo partly drawn) [Example 123, 4-Fluoro-N-[5-fluoro-4-(2-{(2R,5S)-5-[({[(2-methyltetrahydrofuran-2-yl)methyl]carbamoyl}oxy)methyl]morpholin-2-yl}ethyl)pyridin-3-yl]-β-(4-fluorophenyl)-L-phenylalaninamide]	3.2 nM		19 nM
COC(=O)N[C@H](C(=O)Nc1cncc(F)c1CC[C@@H]1CN[C@H](COC(=O)NCC(F)(F)F)CO1)[C@H](c1ccccc1)c1ccc(Cl)cc1 [Example 107, (βR)-β-(4-Chlorophenyl)-N-(5-fluoro-4-{2-[(2R,5S)-5-({[(2,2,2-trifluoroethyl)carbamoyl]oxy}methyl)morpholin-2-yl]ethyl}pyridin-3-yl)-Nα-(methoxycarbonyl)-L-phenylalaninamide]	0.3 nM		11 nM
N[C@H](C(=O)Nc1cncc(F)c1CC[C@@H]1CN[C@H](COC(=O)NCC2CCCCO2)CO1)C(c1ccc(F)cc1)c1ccc(F)cc1 (stereo partly drawn) [Example 213, 4-fluoro-β-(4-fluorophenyl)-N-(5-fluoro-4-{2-[(2R,5S)-5-({[(tetrahydro-2H-pyran-2-ylmethyl)carbamoyl]oxy}methyl)morpholin-2-yl]ethyl}pyridin-3-yl)-L-phenylalaninamide]	6.1 nM		61 nM
N[C@H](C(=O)Nc1cccc(F)c1CC[C@@H]1CN[C@H](COC(=O)NCC(F)(F)F)CO1)[C@H](c1ccc(F)cc1)c1cccc(Cl)c1 [Example 257, (βR)-β-(3-chlorophenyl)-4-fluoro-N-(3-fluoro-2-{2-[(2R,5S)-5-({[(2,2,2-trifluoroethyl)carbamoyl]oxy}methyl)morpholin-2-yl]ethyl}phenyl)-L-phenylalaninamide]	5.1 nM		51 nM
N[C@H](C(=O)Nc1cncc(F)c1CC[C@@H]1CN[C@H](COC(=O)NCc2ccc3ccccc3n2)CO1)C(c1ccc(F)cc1)c1ccc(F)cc1 [Example 243, {(3S,6R)-6-[2-(3-fluoro-5-{[4-fluoro-β-(4-fluorophenyl)-L-phenylalanyl]amino}pyridin-4-yl)ethyl]morpholin-3-yl}methyl (quinolin-2-ylmethyl)carbamate]	24 nM		240 nM
COC(=O)N[C@H](C(=O)Nc1cccc(F)c1CC[C@@H]1CN[C@H](COC(=O)NCC(F)(F)F)CO1)[C@H](c1ccccc1)c1ccc(OC)cc1 [Example 296, (βR)-N-(3-fluoro-2-{2-[(2R,5S)-5-({[(2,2,2-trifluoroethyl)carbamoyl]oxy}methyl)morpholin-2-yl]ethyl}phenyl)-Nα-(methoxy-carbonyl)-O-methyl-β-phenyl-L-tyrosinamide]	23 nM		120 nM
O=C(C[C@@H](c1ccc(F)cc1)c1ccccc1C(F)(F)F)Nc1cncc(F)c1CC[C@@H]1CN[C@H](COC(=O)NCC(F)(F)F)CO1 [Example 180, [(3S,6R)-6-{2-[3-fluoro-5-({(3S)-3-(4-fluorophenyl)-3-[2-(trifluoro-methyl)phenyl]propanoyl}amino)pyridin-4-yl]ethyl}morpholin-3-yl]methyl (2,2,2-trifluoroethyl)carbamate]			310 nM
O=C(CC(c1ccc(F)cc1)c1ccc(F)cc1)Nc1cncc(F)c1CC[C@@H]1CN[C@H](COC(=O)NC2c3ccccc3C[C@H]2O)CO1 (stereo partly drawn) [Example 185, {(3S,6R)-6-[2-(3-{[3,3-bis(4-fluoro-phenyl)propanoyl]amino}-5-fluoropyridin-4-yl)ethyl]morpholin-3-yl}methyl [(2R)-2-hydroxy-2,3-dihydro-1H-inden-1-yl]carbamate]			68 nM
COC(=O)N[C@H](C(=O)Nc1cccc(F)c1CC[C@@H]1CN[C@H](COC(=O)NCC(F)(F)F)CO1)[C@@H](c1ccc(F)cc1)c1ccc(OC(F)(F)F)cc1 [Example 304, (βR)-β-(4-fluorophenyl)-N-(3-fluoro-2-{2-[(2R,5S)-5-({[(2,2,2-trifluoroethyl)carbamoyl]oxy}methyl)morpholin-2-yl]ethyl}phenyl)-Nα-(methoxy-carbonyl)-O-(trifluoromethyl)-L-tyrosinamide]			33 nM
O=C(CC(c1ccc(F)cc1)c1ccc(F)cc1)Nc1cccc(F)c1CC[C@@H]1CN[C@H](CNC(=O)OCC(F)(F)F)CO1 [Example 87, 2,2,2-trifluoroethyl ({(3R,6R)-6-[2-(2-{[3,3-bis(4-fluoro-phenyl)propanoyl]amino}-6-fluorophenyl)ethyl]morpholin-3-yl}methyl) carbamate]			2200 nM
